Experimental data as given in US20170035787A1, “Fixed Dose Combination for Pain Relief Without Edema” (Autotelic LLC, priority 2014, published 2017).
Several values for one entry are separate records, joined by “and”; a condition that tells them apart may be missing. Equal entries are not always repeated. Entries after “also recorded” stand apart in the source; their conditions may differ.

How the values were obtained:
[1] = CELEBREX Package Insert table; cited from earlier work
[2] = cited from earlier work
[3] = Applicant's meta analysis of reported edema rates in osteoarthritic populations by celecoxib dose
[4] = Combined plots and meta analysis of published celecoxib pharmacokinetic data; format: in vivo, human
From the text: In other words, the most efficacious celecoxib dosage is not well defined among the elderly. The problem may be more widespread than expected as elderly here is defined as patients greater than >40 or >50, not the usually definition of elderly (age greater >65).

[5] = in vivo

**Q.** For CC(C)Cc1ccc(C(C)C(=O)O)cc1 (centres unmarked) [ibuprofen], which “patients treated who develop edema” value [1] is on record?
**A.** 3.5%

**Q.** Which results are given for Cc1ccc(-c2cc(C(F)(F)F)nn2-c2ccc(S(N)(=O)=O)cc2)cc1 [celecoxib]?
**A.** incidence of edema ([2]; two trials with much higher incidence): 23% and 38%; incidence of edema at any site ([2]; usual incidence in clinical trials of celecoxib): about 3%; upper limit and average edema event rate ([3]; 400 mg/day vs 100 or 200 mg/day): more than twice as high; edema event rates ([3]; 100 vs 200 mg/day dose): remarkably similar edema event rates; variability of pharmacokinetics; 100 mg vs 200 mg dose PK results ([4]; FIG. 2, listed as CELEBREX®): unexpectedly high; also recorded: substantial overlap; drug exposure as defined by AUC, elderly vs younger patients ([4]; age-based subgroups, FIG. 3): highly significant differences; % Edema ([5]; human): 20%; effect of anti-hypertensive class on incidence of edema in patients taking CELEBREX [5]: steady increase in incidence of edema; incidence of edema in patients taking CELEBREX with or without diuretic [5]: steady increase in incidence of edema; incidence of edema with vs without CELEBREX by arthritis group [5]: increased when patients was taken CELEBREX® for all groups except for RA and no Arthritis free patients; patients treated who develop edema [1]: 2.1%

**Q.** For O=C(O)Cc1ccccc1Nc1c(Cl)cccc1Cl [diclofenac], which “patients treated who develop edema” value [1] is on record?
**A.** 1.0%

**Q.** With COc1ccc2cc([C@H](C)C(=O)O)ccc2c1 [naproxen] as the compound, how does the “patients treated who develop edema” value [1] read?
**A.** 2.1%
